Assay results: publication PMC6028563, “Probing Substituents in the 1- and 3-Position: Tetrahydropyrazino-Annelated Water-Soluble Xanthine Derivatives as Multi-Target Drugs With Potent Adenosine Receptor Antagonistic Activity” (Frontiers in Chemistry, 2018)
Read-outs that look alike come from different tables or passages of the source.

What was measured:
[1] = biological target: T1, human A3 AR (Homo sapiens, UniProt P0DMS8); assay: Radioligand binding assay at human A3 AR vs. [^3H]PSB-11
T1 construct: expressed in transfected cells; host or cells: CHO cells
T1 sequence (P0DMS8 1-318): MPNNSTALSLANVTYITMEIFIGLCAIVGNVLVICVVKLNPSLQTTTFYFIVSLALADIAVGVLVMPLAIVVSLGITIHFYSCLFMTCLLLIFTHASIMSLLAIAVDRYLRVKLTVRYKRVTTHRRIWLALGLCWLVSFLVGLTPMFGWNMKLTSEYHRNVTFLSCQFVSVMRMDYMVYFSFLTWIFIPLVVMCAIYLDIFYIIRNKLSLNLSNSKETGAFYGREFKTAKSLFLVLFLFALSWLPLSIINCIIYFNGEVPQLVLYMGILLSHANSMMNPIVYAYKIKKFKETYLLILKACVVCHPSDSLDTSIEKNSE
How it was run: (§1)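 Affinity values derive from radioligand displacement on membrane preparations: native rat tissue (cortex for A1, striatum for A2A) or CHO cells recombinantly expressing human A1, A2A, A2B or A3 ARs.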

[2] = biological target: T2, human A2B AR (Homo sapiens, UniProt P29275); assay: Radioligand binding assay at human A2B AR vs. [^3H]PSB-603
T2 construct: expressed in transfected cells; host or cells: CHO cells
T2 sequence (P29275 1-332): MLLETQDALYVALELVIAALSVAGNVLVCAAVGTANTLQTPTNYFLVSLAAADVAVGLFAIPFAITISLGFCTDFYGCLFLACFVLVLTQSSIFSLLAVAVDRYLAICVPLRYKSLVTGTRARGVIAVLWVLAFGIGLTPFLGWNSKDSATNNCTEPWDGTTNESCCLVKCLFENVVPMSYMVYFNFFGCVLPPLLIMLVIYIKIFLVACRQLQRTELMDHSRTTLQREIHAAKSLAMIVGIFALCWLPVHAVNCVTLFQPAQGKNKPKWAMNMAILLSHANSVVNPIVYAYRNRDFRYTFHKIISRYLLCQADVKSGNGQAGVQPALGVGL
How it was run: as §1

[3] = biological target: T3, rat A2A AR (Rattus norvegicus, UniProt P30543); assay: Radioligand binding assay at rat A2A AR (rat brain striatum) vs. [^3H]MSX-2; conditions: rat (r)
T3 construct: A2A ARs of rat brain striatal membrane preparations; from tissue; host or cells: rat brain striatum membranes
T3 sequence (P30543 whole entry): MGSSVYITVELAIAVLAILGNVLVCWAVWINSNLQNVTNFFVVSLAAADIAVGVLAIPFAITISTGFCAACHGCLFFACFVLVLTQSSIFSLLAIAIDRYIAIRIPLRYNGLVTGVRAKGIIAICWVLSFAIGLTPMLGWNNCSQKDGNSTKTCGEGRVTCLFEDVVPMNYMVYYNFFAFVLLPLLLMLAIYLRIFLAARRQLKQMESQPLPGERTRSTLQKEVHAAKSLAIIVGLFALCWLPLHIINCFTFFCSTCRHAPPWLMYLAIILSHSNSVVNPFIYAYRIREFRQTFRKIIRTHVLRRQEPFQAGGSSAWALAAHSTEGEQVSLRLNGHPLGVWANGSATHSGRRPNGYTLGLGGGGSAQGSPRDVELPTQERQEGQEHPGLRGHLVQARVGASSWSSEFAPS
How it was run: as §1

[4] = biological target: T4, rat A1 AR (Rattus norvegicus, UniProt P25099); assay: Radioligand binding assay at rat A1 AR (rat brain cortex) vs. [^3H]CCPA; conditions: rat (r)
T4 construct: A1 ARs of rat brain cortical membrane; from tissue; host or cells: rat brain cortex membranes
T4 sequence (P25099 1-326): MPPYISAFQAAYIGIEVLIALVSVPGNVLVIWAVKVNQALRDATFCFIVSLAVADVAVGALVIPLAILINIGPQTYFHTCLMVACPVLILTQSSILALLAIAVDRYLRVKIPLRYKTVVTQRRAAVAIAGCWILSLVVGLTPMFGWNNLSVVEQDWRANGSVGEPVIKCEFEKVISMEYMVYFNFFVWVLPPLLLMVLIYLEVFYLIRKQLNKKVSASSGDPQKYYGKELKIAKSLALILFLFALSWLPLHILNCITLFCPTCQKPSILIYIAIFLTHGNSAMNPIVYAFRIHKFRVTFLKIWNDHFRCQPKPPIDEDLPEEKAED
How it was run: as §1

[5] = test system: ARs; assay: Radioligand binding assays at adenosine receptors (statements on ARs in general)
Protocol: Membrane preparations and radioligand binding assays at rat A1 (rat brain cortex) and rat A2A ARs (rat brain striatum) were performed as previously described (Ozola et al., [2003]; Alnouri et al., [2015]). For assays at human A1, A2A, A2B, and A3 ARs, CHO cell membranes expressing one of the human AR subtypes were used as previously reported (Klotz et al., [1998]; Alnouri et al., [2015]; De Filippo et al., [2016]).
The synthesized tetrahydropyrazino[2,1-f ]purinediones 13–20 were evaluated in radioligand binding assays for their affinity to A1 ARs of rat brain cortical membrane and to A2A ARs of rat brain striatal membrane preparations. Selected compounds were further investigated for their affinity to human A1 and A2A ARs recombinantly expressed in Chinese hamster ovary (CHO) cells. All compounds were additionally investigated for their affinity to human A2B and A3 ARs recombinantly expressed in CHO cells to determine their AR subtype selectivity. […] It is well known that all xanthine derivatives lacking a ribose moiety, including tricyclic compounds, can only block ARs, but never act as AR agonists; therefore, additional functional studies were not required. […] Potent MAO-B inhibitors were additionally investigated for inhibition of human MAO-A to assess their selectivity. Results are presented in Tables 1–6, and data of standard ligands are included for comparison.

[6] = biological target: T5, recombinant human MAO-A (Homo sapiens, UniProt P21397); assay: Monoamine oxidase assay (Amplex Red), MAO-A; type: biochemical; conditions: for inhibition at 10 µM: at 10,000 nM, read-out: % inhibition at indicated concentration, Human MAO-A; for IC50: n = 3, read-out: IC50 ± SEM, Human MAO-A
T5 construct: purchased Sigma-Aldrich M7316; host or cells: baculovirus-infected insect cells
T5 sequence (P21397 1-527): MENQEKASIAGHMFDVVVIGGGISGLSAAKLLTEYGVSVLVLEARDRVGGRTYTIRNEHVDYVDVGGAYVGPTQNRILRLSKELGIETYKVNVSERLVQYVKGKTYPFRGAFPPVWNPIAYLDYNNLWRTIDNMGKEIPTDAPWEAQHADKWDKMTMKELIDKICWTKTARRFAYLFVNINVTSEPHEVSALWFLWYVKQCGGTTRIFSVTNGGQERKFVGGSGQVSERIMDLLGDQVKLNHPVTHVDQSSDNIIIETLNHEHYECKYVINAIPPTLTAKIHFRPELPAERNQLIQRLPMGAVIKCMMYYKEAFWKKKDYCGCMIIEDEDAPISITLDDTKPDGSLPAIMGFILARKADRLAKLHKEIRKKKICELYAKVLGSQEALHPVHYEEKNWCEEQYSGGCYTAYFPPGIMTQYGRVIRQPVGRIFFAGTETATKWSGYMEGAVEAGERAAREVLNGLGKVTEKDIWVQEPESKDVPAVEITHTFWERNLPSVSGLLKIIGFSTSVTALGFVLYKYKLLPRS
How it was run: (§2)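 Inhibition was measured with an Amplex Red monoamine oxidase assay, using human MAO-A and MAO-B produced recombinantly in baculovirus-infected insect cells. For rat MAO-B, liver mitochondria-enriched fractions from male Sprague Dawley rats served as enzyme source.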

[7] = biological target: T6, recombinant human MAO-B (Homo sapiens, UniProt P27338); assay: Monoamine oxidase assay (Amplex Red), MAO-B; type: biochemical; conditions: for inhibition at 10 µM: at 10,000 nM (10 μM), read-out: % inhibition at indicated concentration, Human MAO-B; for IC50: n = 3, read-out: IC50 ± SEM, Human MAO-B
T6 construct: purchased Sigma-Aldrich M7441; host or cells: baculovirus-infected insect cells
T6 sequence (P27338 1-520): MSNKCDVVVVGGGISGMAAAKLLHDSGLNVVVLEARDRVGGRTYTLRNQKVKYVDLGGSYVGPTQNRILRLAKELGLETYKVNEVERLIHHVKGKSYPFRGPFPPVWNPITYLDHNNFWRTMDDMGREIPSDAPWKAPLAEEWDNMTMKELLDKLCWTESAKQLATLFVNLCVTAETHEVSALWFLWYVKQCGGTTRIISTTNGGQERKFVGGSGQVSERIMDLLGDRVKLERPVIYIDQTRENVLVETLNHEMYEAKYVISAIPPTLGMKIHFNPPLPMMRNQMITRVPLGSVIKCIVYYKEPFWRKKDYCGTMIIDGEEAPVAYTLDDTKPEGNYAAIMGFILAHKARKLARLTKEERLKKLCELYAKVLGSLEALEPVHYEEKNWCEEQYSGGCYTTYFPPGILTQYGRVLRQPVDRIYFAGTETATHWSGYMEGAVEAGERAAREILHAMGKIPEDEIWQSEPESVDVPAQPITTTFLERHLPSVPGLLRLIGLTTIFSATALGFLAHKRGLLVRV
How it was run: as §2

[8] = biological target: T6, recombinant human MAO-B; conditions: human (h); Figure 1; ref Petzer et al., 2009; Müller and Jacobson, 2011; Brunschweiger et al., 2014; cited from earlier work
[9] = biological target: T5, recombinant human MAO-A; conditions: human (h); Figure 1; ref Petzer et al., 2009; Müller and Jacobson, 2011; Brunschweiger et al., 2014; cited from earlier work
[10] = test system: passive avoidance test; set-up: method as in Mihara et al., 2007; conditions: rats; ref Mihara et al., 2007; cited from earlier work
[11] = biological target: T1, human A3 AR; conditions: human (h); Figure 2; ref Chen et al., 2002; Stössel et al., 2013; Mihara et al., 2007; read-out: A3 (Ki); cited from earlier work
[12] = test system: haloperidol-induced catalepsy; set-up: method as in Mihara et al., 2007; conditions: monkeys; ref Mihara et al., 2007; cited from earlier work

| Ki ([1]; CHO cell membranes, n = 2 (n = 3 where marked a), read-out: Ki ± SEM, A3 vs. [^3H]PSB-11) [µM] | inhibition at 10 µM ([1]; at 10,000 nM, read-out: % inhibition of radioligand binding at indicated concentration, A3 vs. [^3H]PSB-11) [%] | Ki ([2]; CHO cell membranes, n = 2 (n = 3 where marked a), read-out: Ki ± SEM, A2B vs. [^3H]PSB-603) [µM] | inhibition at 1 µM ([2]; at 1,000 nM, read-out: % inhibition of radioligand binding at indicated concentration, A2B vs. [^3H]PSB-603) [%] | % inhibition of radioligand binding at indicated concentration, A2A vs. [^3H]MSX-2 ([3]; at 1,000 nM) [%] | Ki ([3]; rat brain striatum, n = 3, read-out: Ki ± SEM, A2A vs. [^3H]MSX-2) [µM] | Ki ([4]; rat brain cortex, n = 3) [µM] | inhibition at 1.5 µM ([4]; read-out: % inhibition of radioligand binding at indicated concentration, A1 vs. [^3H]CCPA, at 1,500 nM) [%] | affinity for ARs (in words) [5] | inhibition at 10 µM [6] [%] | IC50 [6] [µM] | inhibition at 10 µM [7] [%] | IC50 [7] [µM] | Compound | IC50 [8] [µM] | IC50 [9] [µM] | result in the passive avoidance test [10] | Ki [11] [µM] | effect on haloperidol-induced catalepsy [12] |
| --- | --- | --- | --- | --- | --- | --- | --- | --- | --- | --- | --- | --- | --- | --- | --- | --- | --- | --- |
| > 10 | 32 | > 1 | 2 | 39 | > 1 | > 1.5 | 31 | nearly inactive | 8 | > 10 | 56 | < 10 | CCn1c(=O)c2c(nc3n2CCN(Cc2cc(C(F)(F)F)cc(C(F)(F)F)c2)C3)n(C)c1=O [Compound 14q, 8-(3,5-bis(trifluoromethyl)benzyl)-3-ethyl-1-methyl-6,7,8,9-tetrahydropyrazino[2,1-f]purine-2,4(1H,3H)-dione] |  |  |  |  |  |
|  |  |  |  |  |  |  |  |  | 18 | > 10 | 20 | > 10 | CCn1c(=O)c2c(nc(/C=C/c3ccc(OC)c(OC)c3)n2C)n(CC)c1=O [Istradefylline, istradefylline, reference compound] | > 10 | > 10 | inactive |  |  |
|  |  |  |  |  |  |  |  |  |  |  |  |  | CC(C)n1cc(-c2ncc(N)nc2-c2ccc(F)cc2)ccc1=O [ASP-5854, 5-[5-amino-3-(4-fluorophenyl)pyrazin-2-yl]-1-isopropylpyridine-2(1H)-one] |  |  | positive results | > 0.557 | reversed |
